# Results: patent US20130303509A1, “NAMPT INHIBITORS” (AbbVie Inc., priority 2012, published 2013)
# System: PC3 cells
# Test: NAMPT Cell Proliferation Assay
# Format: cell-based
# Conditions: Homo sapiens, PC-3, 120 h, 5 days incubation, cell viability by Cell Titer Glo
# Outline: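 Five-day CellTiter-Glo viability readout in PC3 cells grown in RPMI/10% heat-inactivated FBS. Compounds added after overnight attachment as a 10-fold dilution series, […]. Percent inhibition fitted to sigmoidal dose-response to derive IC50.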
row,IC50,SMILES
1,0.1 µM,"CC(C)C(=O)N1CC(Oc2ccc(NC(=O)C3CN(c4ccnnc4)C3)cc2)C1 [Example 264, N-(4-{[1-(2-methylpropanoyl)azetidin-3-yl]oxy}phenyl)-1-(pyridazin-4-yl)azetidine-3-carboxamide]"
2,0.0038 µM,"COc1cccc(C(=O)N2CCC(c3ccc(NC(=O)C4CN(c5cccnn5)C4)cc3)CC2)c1 [Example 346, N-{4-[1-(3-methoxybenzoyl)piperidin-4-yl]phenyl}-1-(pyridazin-3-yl)azetidine-3-carboxamide]"
3,0.00059 µM,"CC1CC1C(=O)N1CCC(c2ccc(NC(=O)C3CN(c4cccnc4)C3)cc2)CC1 (stereo not shown) [Example 102, N-(4-{1-[(2-methylcyclopropyl)carbonyl]piperidin-4-yl}phenyl)-1-(pyridin-3-yl)azetidine-3-carboxamide]"
4,0.0664 µM,"COCC(=O)N1CC[C@@H](Oc2ccc(NC(=O)C3CN(c4cccnn4)C3)cc2)C1 [Example 510, N-(4-{[(3R)-1-(methoxyacetyl)pyrrolidin-3-yl]oxy}phenyl)-1-(pyridazin-3-yl)azetidine-3-carboxamide]"
5,0.00966 µM,"O=C(Nc1ccc(OC2CCN(C(=O)CC3C[C@@H]4CC[C@H]3C4)CC2)cc1)C1CN(c2cccnc2)C1 (stereo partly drawn) [Example 36, N-[4-({1-[(1S,4R)-bicyclo[2.2.1]hept-2-ylacetyl]piperidin-4-yl}oxy)phenyl]-1-(pyridin-3-yl)azetidine-3-carboxamide]"
6,7.29 µM,"O=C(Nc1ccc(S(=O)(=O)C2CCN(C(=O)c3ccc(F)cc3)CC2)cc1)C1CN(c2ccnnc2)C1 [Example 616, N-(4-{[1-(4-fluorobenzoyl)piperidin-4-yl]sulfonyl}phenyl)-1-(pyridazin-4-yl)azetidine-3-carboxamide]"
7,0.00706 µM,"O=C(Nc1ccc(O[C@@H]2CCN(C(=O)c3cccc(C(F)(F)F)c3)C2)cc1)C1CN(c2cccnn2)C1 [Example 495, 1-(pyridazin-3-yl)-N-[4-({(3R)-1-[3-(trifluoromethyl)benzoyl]pyrrolidin-3-yl}oxy)phenyl]azetidine-3-carboxamide]"
8,0.0136 µM,"Cc1cc(C)cc(C(=O)N2CCC(c3ccc(NC(=O)[C@H]4CCN(c5cccnn5)C4)cc3)CC2)c1 [Example 693, (3S)-N-{4-[1-(3,5-dimethylbenzoyl)piperidin-4-yl]phenyl}-1-(pyridazin-3-yl)pyrrolidine-3-carboxamide]"
9,0.00605 µM,"CCCCC(=O)N1CCC(c2ccc(NC(=O)C3CN(c4cccnc4)C3)cc2)CC1 [Example 98, N-[4-(1-pentanoylpiperidin-4-yl)phenyl]-1-(pyridin-3-yl)azetidine-3-carboxamide]"
10,0.00067 µM,"O=C(Nc1ccc(C2CCN(C(=O)c3cccs3)CC2)cc1)C1CN(c2ccnnc2)C1 [Example 549, 1-(pyridazin-4-yl)-N-{4-[1-(thiophen-2-ylcarbonyl)piperidin-4-yl]phenyl}azetidine-3-carboxamide]"
11,0.0649 µM,"COCC(=O)N1CCC(c2ccc(NC(=O)C3CN(c4ccnnc4)C3)cc2)CC1 [Example 548, N-{4-[1-(methoxyacetyl)piperidin-4-yl]phenyl}-1-(pyridazin-4-yl)azetidine-3-carboxamide]"
12,0.707 µM,"O=C(Nc1ccc(S(=O)(=O)C2CCN(C(=O)Cc3ccccc3F)CC2)cc1)C1CN(c2cccnn2)C1 [Example 613, N-[4-({1-[(2-fluorophenyl)acetyl]piperidin-4-yl}sulfonyl)phenyl]-1-(pyridazin-3-yl)azetidine-3-carboxamide]"
13,0.0746 µM,"CC(C)(C)CC(=O)N1CCC(Oc2ccc(NC(=O)C3CN(c4ccnnc4)C3)cc2)CC1 [Example 260, N-(4-{[1-(3,3-dimethylbutanoyl)piperidin-4-yl]oxy}phenyl)-1-(pyridazin-4-yl)azetidine-3-carboxamide]"
14,0.00105 µM,"O=C(Nc1ccc(O[C@@H]2CCN(C(=O)Cc3cccc(F)c3)C2)cc1)C1CN(c2cccnn2)C1 [Example 494, N-[4-({(3R)-1-[(3-fluorophenyl)acetyl]pyrrolidin-3-yl}oxy)phenyl]-1-(pyridazin-3-yl)azetidine-3-carboxamide]"
15,0.0639 µM,"O=C(Nc1ccc(C2CN(C(=O)c3ccc(F)cc3)C2)cc1)[C@H]1CCN(c2cccnn2)C1 [Example 787, (3S)-N-{4-[1-(4-fluorobenzoyl)azetidin-3-yl]phenyl}-1-(pyridazin-3-yl)pyrrolidine-3-carboxamide]"
16,0.00028 µM,"CC(C)(O)C(=O)N1CCC(c2ccc(NC(=O)C3CN(c4cccnc4)C3)cc2)CC1 [Example 20, N-{4-[1-(2-hydroxy-2-methylpropanoyl)piperidin-4-yl]phenyl}-1-(pyridin-3-yl)azetidine-3-carboxamide]"
17,0.00026 µM,"CC1(C(=O)N2CCC(c3ccc(NC(=O)C4CN(c5cccnc5)C4)cc3)CC2)CC1 [Example 110, N-(4-{1-[(1-methylcyclopropyl)carbonyl]piperidin-4-yl}phenyl)-1-(pyridin-3-yl)azetidine-3-carboxamide]"
18,0.0682 µM,"Cc1ncccc1N1CC(C(=O)Nc2ccc(C3CCN(C(=O)c4ccoc4)CC3)cc2)C1 [Example 165, N-{4-[1-(furan-3-ylcarbonyl)piperidin-4-yl]phenyl}-1-(2-methylpyridin-3-yl)azetidine-3-carboxamide]"
19,0.00846 µM,"O=C(Nc1ccc(C2CCN(C(=O)CC3CC3)CC2)cc1)[C@H]1CCN(c2cccnn2)C1 [Example 643, (3S)-N-{4-[1-(cyclopropylacetyl)piperidin-4-yl]phenyl}-1-(pyridazin-3-yl)pyrrolidine-3-carboxamide]"
20,6.15 µM,"O=C(Nc1ccc(S(=O)(=O)C2CCN(C(=O)c3ccccc3)CC2)cc1)C1CN(c2ccnnc2)C1 [Example 615, N-{4-[(1-benzoylpiperidin-4-yl)sulfonyl]phenyl}-1-(pyridazin-4-yl)azetidine-3-carboxamide]"
21,0.0395 µM,"O=C(Nc1ccc(O[C@@H]2CCN(C(=O)c3cscn3)C2)cc1)C1CN(c2ccnnc2)C1 [Example 456, 1-(pyridazin-4-yl)-N-(4-{[(3R)-1-(1,3-thiazol-4-ylcarbonyl)pyrrolidin-3-yl]oxy}phenyl)azetidine-3-carboxamide]"
22,0.0693 µM,"Cc1ncccc1N1CC(C(=O)Nc2ccc(C3CCN(C(=O)CC(C)(C)C)CC3)cc2)C1 [Example 192, N-{4-[1-(3,3-dimethylbutanoyl)piperidin-4-yl]phenyl}-1-(2-methylpyridin-3-yl)azetidine-3-carboxamide]"
23,0.00577 µM,"O=C(Nc1ccc(C2CCN(C(=O)CCC(F)(F)F)CC2)cc1)C1CN(c2cccnn2)C1 [Example 433, 1-(pyridazin-3-yl)-N-{4-[1-(4,4,4-trifluorobutanoyl)piperidin-4-yl]phenyl}azetidine-3-carboxamide]"
24,0.0156 µM,"O=C(Nc1ccc(O[C@@H]2CCN(C(=O)c3ccc(F)cc3F)C2)cc1)C1CN(c2ccnnc2)C1 [Example 467, N-(4-{[(3R)-1-(2,4-difluorobenzoyl)pyrrolidin-3-yl]oxy}phenyl)-1-(pyridazin-4-yl)azetidine-3-carboxamide]"

row,SMILES,IC50
1,"CC1(C(=O)N2C3CCC2CC(c2ccc(NC(=O)C4CN(c5cccnn5)C4)cc2)C3)CC1 (stereo not shown) [Example 845, N-(4-{8-[(1-methylcyclopropyl)carbonyl]-8-azabicyclo[3.2.1]oct-3-yl}phenyl)-1-(pyridazin-3-yl)azetidine-3-carboxamide]",0.00209 µM
